Earlier results as cited in patent publication US8097593B1, “Lipid A and other carbohydrate ligand analogs” (Oncothyreon Inc., priority 2002, dated 2012).

Experiments:
[1] = not given; remark: listed apart in the source

| Molecule | experimental log P | immunostimulating activities, in words ([1]; compared with diphosphoryl Lipid-A (and endotoxin itself)) | times less potent in eliciting toxic and pyrogenic responses ([1]; on a molar basis) [times] |
| --- | --- | --- | --- |
| CC(C)(C)C [CC(C)(C)C, 2,2-dimethylpropane] | 3.11 | – | – |
| monophosphoryl Lipid-A | – | comparable | 1000 |
